Experimental findings from EP4768479A1 (Hubei Bio-Pharmaceutical Industrial Technological Institute …, priority 2023, dated 2025) are described below.

The test concerns the target T1, AT2R (Homo sapiens, UniProt P50052).
T1 construct: purchased Cisbio #C1TT1AT2
T1 sequence (P50052 1-363): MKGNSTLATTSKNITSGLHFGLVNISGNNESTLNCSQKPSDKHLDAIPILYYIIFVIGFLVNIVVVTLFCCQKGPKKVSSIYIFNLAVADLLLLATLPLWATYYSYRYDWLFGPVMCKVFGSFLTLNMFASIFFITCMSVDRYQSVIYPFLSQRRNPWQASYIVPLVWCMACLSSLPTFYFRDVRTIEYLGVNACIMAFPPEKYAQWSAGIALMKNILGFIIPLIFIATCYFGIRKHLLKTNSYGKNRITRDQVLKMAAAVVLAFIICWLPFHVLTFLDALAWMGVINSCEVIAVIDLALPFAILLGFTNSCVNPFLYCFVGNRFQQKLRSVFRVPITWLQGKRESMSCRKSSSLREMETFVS
Kind of test: Binding assay of compounds to AT2R (Tag-lite HTRF ligand binding kit). Here is the method:
The assay was performed in accordance with the manufacturer instructions of Angiotensin AT2 Receptor Ligand Binding Assay Kit (#C1TT1AT2, Cisbio). First, a 10 mM compound stock solution was diluted in a gradient at a 5× dilution ratio (including 10 concentrations, each with two replicates). 160 nL of compounds at different concentrations was added to a 384-well plate. 40 µL of 1× TLB (TLB: Tag-lite buffer) was added to each well, and the mixture was shaken at room temperature for 15 minutes. A 15 mL centrifuge tube added with 5 mL of 1×TLB was prepared in advance. The frozen labeled cells were thawed in a water bath at 37°C (for 1 to 2 minutes), and the thawed cells were quickly transferred to the above 15 mL centrifuge tube. The mixture was mixed well and centrifuged at 1,000 g at room temperature for 5 minutes. The supernatant was removed, and the cells were resuspended by adding 2.7 mL 1× TLB. A new 384-well plate was taken, and 10 µL of mixed cells were added into the corresponding wells according to the assay design. 5 µL of 4× compound solution and 5 µL of 4× Tag-lite red fluorescent labeled ligand were added to each well. After incubation at room temperature for 1 hour, data were read using EnVision with an HTRF mode. The […] at 665nM and 615nM in each well were read respectively, and the ratio was calculated (Ratio=A665nM/B615nM). The IC50 value was calculated by means of GraphPad Prism8 software, where X represents logarithmic value of compound concentration; and Y represents ratio of A665nM/B615nM.

Turning to `COC(=O)NS(=O)(=O)c1sc(CC(C)C)c(F)c1-c1ccc(Cn2ccnc2Cl)cc1` [Compound I-1, Methyl ((3-(4-((2-chloro-1H-imidazol-1-yl)methyl)phenyl)-4-fluoro-5-isobutylthiophen-2-yl)sulfonyl) carbamate], the half-maximal inhibitory concentration (IC50) – broadly, the concentration that gives 50% inhibition – was found to be 6.67 nM.
In turn, `COC(=O)NS(=O)(=O)c1sc(CC(C)C)c(F)c1-c1ccc(Cn2ccnc2C(F)(F)F)cc1` [Compound I-2, Methyl ((4-fluoro-5-isobutyl-3-(4-((2-(trifluoromethyl)-1H-imidazol-1-yl)methyl)phenyl)thiophen-2-yl)sulfonyl) carbamate] came in with an IC50 of 6.56 nM.
Regarding `Cc1c(CC(C)C)sc(S(=O)(=O)NC(=O)OCCO)c1-c1ccc(Cn2ccnc2Cl)cc1` [Compound I-18, 2-hydroxyethyl ((3-(4-((2-chloro-1H-imidazol-1-yl)methyl)phenyl)-5-isobutyl-4-methylthiophen-2-yl)sulfonyl)carbamate], the IC50 stood at 3.52 nM.
For `Cc1c(CC(C)C)sc(S(=O)(=O)NC(=O)OC[C@@H](C)O)c1-c1ccc(Cn2ccnc2C(F)(F)F)cc1` [Compound I-12, (2R)-2-hydroxypropyl ((5-isobutyl-4-methyl-3-(4-((2-(trifluoromethyl)-1H-imidazol-1-yl)methyl)phenyl)thiophen-2-yl)sulfonyl)carbamate] the value was 3.88 nM; for `CCCCOC(=O)NS(=O)(=O)c1sc(CC(C)C)c(F)c1-c1ccc(Cn2ccnc2C(F)(F)F)cc1` [Compound I-4, Butyl ((4-fluoro-5-isobutyl-3-(4-((2-(trifluoromethyl)-1H-imidazol-1-yl)methyl)phenyl)thiophen-2-yl)sulfonyl)carbamate], 3.46 nM.
The same measure for `Cc1c(CC(C)C)sc(S(=O)(=O)NC(=O)OC[C@H](C)O)c1-c1ccc(Cn2ccnc2C(F)(F)F)cc1` [Compound I-11, (2S)-2-hydroxypropyl ((5-isobutyl-4-methyl-3-(4-((2-(trifluoromethyl)-1H-imidazol-1-yl)methyl)phenyl)thiophen-2-yl)sulfonyl)carbamate]: 4.49 nM.
With `Cc1c(CC(C)C)sc(S(=O)(=O)NC(=O)OC[C@@H](C)O)c1-c1ccc(Cn2ccnc2Cl)cc1` [Compound I-17, (2R)-2-hydroxypropyl ((3-(4-((2-chloro-1H-imidazol-1-yl)methyl)phenyl)-4-methyl-5-isobutylthiophen-2-yl)sulfonyl)carbamate], the IC50 was determined as 3.88 nM.
As to `Cc1c(CC(C)C)sc(S(=O)(=O)NC(=O)OC[C@H](C)O)c1-c1ccc(Cn2ccnc2Cl)cc1` [Compound I-16, (2S)-2-hydroxypropyl ((3-(4-((2-chloro-1H-imidazol-1-yl)methyl)phenyl)-4-methyl-5-isobutylthiophen-2-yl)sulfonyl)carbamate], the IC50 came to 4.49 nM.
The same measure for `CCCCOC(=O)NS(=O)(=O)c1sc(CC(C)C)c(F)c1-c1ccc(Cn2ccnc2C(C)(C)O)cc1` [Compound I-3, Butyl ((4-fluoro-3-(4-((2-(2-hydroxypropan-2-yl)-1H-imidazol-1-yl)methyl)phenyl)-5-isobutylthiophen-2-yl)sulfonyl)carbamate]: 3.21 nM; for `Cc1c(CC(C)C)sc(S(=O)(=O)NC(=O)NCc2ccccn2)c1-c1ccc(Cn2ccnc2C(F)(F)F)cc1` [Compound I-24]: 4.41 nM.
